# Experimental data as given in patent US20020137929A1, “1 - (3-heterocyclylphenyl) isothiourea, -isourea, -guanidine and -amidine herbicidal agents” (Intellectual Property Department, BASF Aktiengesellschaft, priority 1998, published 2002).
# What was measured:
# [1] = system: AMBEL (Ragweed, Common); test: Postemergence herbicidal evaluation; assay type: in vivo, Ambrosia artemisifolia
# Outline: (§1)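 Visual 0-9 injury score (stand, vigor, malformation, size, chlorosis, appearance vs untreated) taken four to five weeks post-spray, averaged across repeat tests. Test plants about two weeks old; foliar spray of acetone/water (1:1) with 0.5% surfactant delivering ~0.0156-0.500 kg active/ha.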
# [2] = system: IPOHE (Morningglory, Ivyleaf); test: Postemergence herbicidal evaluation; assay type: in vivo, Ipomoea hederacea
# Outline: as §1
# [3] = system: GLXMAW (Soybean, Williams); test: Postemergence herbicidal evaluation; assay type: in vivo, Glycine max, (L.) Merr. cv Williams
# Outline: as §1
# [4] = system: ZEAMX (Corn, Field); test: Postemergence herbicidal evaluation; assay type: in vivo, Zea mays
# Outline: as §1
# [5] = system: ABUTH (Velvetleaf); test: Preemergence herbicidal evaluation; assay type: in vivo, Abutilon theophrasti; conditions: rated 4-5 weeks after treatment
# Outline: (§2)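 Rating at 4–5 wk post-spray on a 0–9 visual scale vs control. Application: aqueous acetone, ~0.0156–0.500 kg/ha, to soil surface after seeding, preemergence.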
# [6] = system: AMBEL (Ragweed, Common); test: Preemergence herbicidal evaluation; assay type: in vivo, Ambrosia artemisifolia; conditions: rated 4-5 weeks after treatment
# Outline: as §2
# [7] = system: CASOB (Sicklepod); test: Preemergence herbicidal evaluation; assay type: in vivo, Cassia obtusifolia; conditions: rated 4-5 weeks after treatment
# Outline: as §2
# [8] = system: GALAP (Galium); test: Preemergence herbicidal evaluation; assay type: in vivo, Galium aparine; conditions: rated 4-5 weeks after treatment
# Outline: as §2
# [9] = system: ECHCG (Barnyardgrass); test: Preemergence herbicidal evaluation; assay type: in vivo, Echinochloa crus-galli; conditions: rated 4-5 weeks after treatment
# Outline: as §2
# [10] = system: SETVI (Foxtail, Green); test: Preemergence herbicidal evaluation; assay type: in vivo, Setaria viridis; conditions: rated 4-5 weeks after treatment
# Outline: as §2
# [11] = system: GLXMAW (Soybean, Williams); test: Preemergence herbicidal evaluation; assay type: in vivo, Glycine max, (L.) Merr. cv Williams; conditions: rated 4-5 weeks after treatment
# Outline: as §2
# [12] = system: CYPSE (Flatsedge); test: Preemergence weed control under flooded paddy conditions; assay type: in vivo, Cyperus serotinus; conditions: rated 3-4 weeks after treatment
# Outline: (§3)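 First, seeds or propagules go into the top 0.5 cm of silt loam; next, water is held 1.5 to 3 cm over the soil; then compound (50/50 acetone/water) is pipetted into it at about 0.0313 to 0.500 kg/ha; finally plants are rated visually 0-9 after three to four weeks.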
# [13] = system: SAGPY (Arrowhead (Pygmaea)); test: as above; assay type: in vivo, Sagittaria pygmaea; conditions: rated 3-4 weeks after treatment
# Outline: as §3
# [14] = system: ECHORC (Watergrass (Calif.)); test: Postemergence weed control under flooded paddy conditions; assay type: in vivo, Echinochloa oryzoides; conditions: postemergence weeds, 3-4 weeks after treatment
# Outline: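 Weeds 3 to 5 cm tall and rice seedlings at the 1.5 to 2.5 leaf stage were flooded, with water held 1.5 to 3 cm above the soil. Compounds in 50/50 v/v aqueous/acetone went into the flood water at about 0.0313 to 0.500 kg/ha. Visual 0-9 ratings versus control were made 3 to 4 weeks later.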
smiles,measurement,setting,value
"CCOC(=O)CN1C(=O)C(CC(=O)OC)S/C1=N/c1cc(-n2c(=O)cc(C(F)(F)F)n(C)c2=O)c(F)cc1Cl (centres unmarked) [Compound 54, 2-{{2-Chloro-5-[3,6-dihydro-3-methyl-2,6-dioxo-4-(trifluoromethyl)-1(2H)-pyrimidinyl]-4-fluorophenyl}imino}-4-oxo-3,5-thiazolidinediacetic acid, 3-ethyl methyl ester]",Postemergence herbicidal rating AMBEL,[1]; Rate 0.0158 kg/ha,9.0
same,Postemergence herbicidal rating AMBEL,[1]; Rate 0.0315 kg/ha,9.0
same,Postemergence herbicidal rating AMBEL,[1]; Rate 0.0630 kg/ha,9.0
same,Postemergence herbicidal rating IPOHE,[2]; Rate 0.0158 kg/ha,9.0
same,Postemergence herbicidal rating IPOHE,[2]; Rate 0.0315 kg/ha,9.0
same,Postemergence herbicidal rating IPOHE,[2]; Rate 0.0630 kg/ha,9.0
same,Postemergence herbicidal rating GLXMAW,[3]; Rate 0.0158 kg/ha,9.0
same,Postemergence herbicidal rating GLXMAW,[3]; Rate 0.0315 kg/ha,9.0
same,Postemergence herbicidal rating GLXMAW,[3]; Rate 0.0630 kg/ha,9.0
same,Postemergence herbicidal rating ZEAMX,[4]; Rate 0.0158 kg/ha,7.5
same,Postemergence herbicidal rating ZEAMX,[4]; Rate 0.0315 kg/ha,8.0
same,Postemergence herbicidal rating ZEAMX,[4]; Rate 0.0630 kg/ha,9.0
same,Preemergence herbicidal rating ABUTH,[5]; rate 0.0156 kg/ha,4.5
same,Preemergence herbicidal rating ABUTH,[5]; rate 0.0313 kg/ha,7.5
same,Preemergence herbicidal rating ABUTH,[5]; rate 0.0625 kg/ha,9.0
same,Preemergence herbicidal rating ABUTH,[5]; rate 0.1250 kg/ha,9.0
same,Preemergence herbicidal rating ABUTH,[5]; rate 0.2500 kg/ha,9.0
same,Preemergence herbicidal rating ABUTH,[5]; rate 0.5000 kg/ha,9.0
same,Preemergence herbicidal rating AMBEL,[6]; rate 0.0156 kg/ha,0.0
same,Preemergence herbicidal rating AMBEL,[6]; rate 0.0313 kg/ha,0.5
same,Preemergence herbicidal rating AMBEL,[6]; rate 0.0625 kg/ha,8.0
same,Preemergence herbicidal rating AMBEL,[6]; rate 0.1250 kg/ha,9.0
same,Preemergence herbicidal rating AMBEL,[6]; rate 0.2500 kg/ha,9.0
same,Preemergence herbicidal rating AMBEL,[6]; rate 0.5000 kg/ha,9.0
same,Preemergence herbicidal rating CASOB,[7]; rate 0.0156 kg/ha,0.0
same,Preemergence herbicidal rating CASOB,[7]; rate 0.0313 kg/ha,0.0
same,Preemergence herbicidal rating CASOB,[7]; rate 0.0625 kg/ha,0.0
same,Preemergence herbicidal rating CASOB,[7]; rate 0.1250 kg/ha,4.5
same,Preemergence herbicidal rating CASOB,[7]; rate 0.2500 kg/ha,6.0
same,Preemergence herbicidal rating CASOB,[7]; rate 0.5000 kg/ha,9.0
same,Preemergence herbicidal rating GALAP,[8]; rate 0.0156 kg/ha,0.0
same,Preemergence herbicidal rating GALAP,[8]; rate 0.0313 kg/ha,0.0
same,Preemergence herbicidal rating GALAP,[8]; rate 0.0625 kg/ha,0.0
same,Preemergence herbicidal rating GALAP,[8]; rate 0.1250 kg/ha,9.0
same,Preemergence herbicidal rating GALAP,[8]; rate 0.2500 kg/ha,9.0
same,Preemergence herbicidal rating ECHCG,[9]; rate 0.0156 kg/ha,0.0
same,Preemergence herbicidal rating ECHCG,[9]; rate 0.0313 kg/ha,0.0
same,Preemergence herbicidal rating ECHCG,[9]; rate 0.0625 kg/ha,0.0
same,Preemergence herbicidal rating ECHCG,[9]; rate 0.1250 kg/ha,2.0
same,Preemergence herbicidal rating ECHCG,[9]; rate 0.2500 kg/ha,5.0
same,Preemergence herbicidal rating ECHCG,[9]; rate 0.5000 kg/ha,9.0
same,Preemergence herbicidal rating SETVI,[10]; rate 0.0156 kg/ha,1.0
same,Preemergence herbicidal rating SETVI,[10]; rate 0.0313 kg/ha,2.0
same,Preemergence herbicidal rating SETVI,[10]; rate 0.0625 kg/ha,3.5
same,Preemergence herbicidal rating SETVI,[10]; rate 0.1250 kg/ha,7.0
same,Preemergence herbicidal rating SETVI,[10]; rate 0.2500 kg/ha,9.0
same,Preemergence herbicidal rating SETVI,[10]; rate 0.5000 kg/ha,9.0
same,Preemergence herbicidal rating GLXMAW,[11]; rate 0.0156 kg/ha,0.0
same,Preemergence herbicidal rating GLXMAW,[11]; rate 0.0313 kg/ha,0.5
same,Preemergence herbicidal rating GLXMAW,[11]; rate 0.0625 kg/ha,1.5
same,Preemergence herbicidal rating GLXMAW,[11]; rate 0.1250 kg/ha,3.0
same,Preemergence herbicidal rating GLXMAW,[11]; rate 0.2500 kg/ha,7.5
same,Preemergence herbicidal rating GLXMAW,[11]; rate 0.5000 kg/ha,9.0
same,Herbicidal rating CYPSE,[12]; 0.0313 kg/ha,0.0
same,Herbicidal rating CYPSE,[12]; 0.0625 kg/ha,0.0
same,Herbicidal rating CYPSE,[12]; 0.1250 kg/ha,0.0
same,Herbicidal rating CYPSE,[12]; 0.2500 kg/ha,4.0
same,Herbicidal rating SAGPY,[13]; 0.0313 kg/ha,0.0
same,Herbicidal rating SAGPY,[13]; 0.0625 kg/ha,0.0
same,Herbicidal rating SAGPY,[13]; 0.1250 kg/ha,0.0
same,Herbicidal rating SAGPY,[13]; 0.2500 kg/ha,2.0
same,Herbicidal rating ECHORC,[14]; rate 0.0313 kg/ha,5.0
same,Herbicidal rating ECHORC,[14]; rate 0.0625 kg/ha,5.0
same,Herbicidal rating ECHORC,[14]; rate 0.1250 kg/ha,7.0
same,Herbicidal rating ECHORC,[14]; rate 0.2500 kg/ha,9.0
